# Reference: patent US5118882A, “Streptenols from streptomycetes, and the preparation and use thereof” (Hoechst Aktiengesellschaft, priority 1989, dated 1992)
# Test system: HEP-G2 cells
# Experiment: Inhibition of cholesterol biosynthesis (14C-acetate incorporation into cholesterol)
# Format: cell-based
# Details: Homo sapiens, HepG2; HEP-G2 monolayers, 1 h preincubation, 3 h with 14C-sodium acetate; read-out: IC50 value (concentration at which 50% of the cholesterol synthesis was inhibited)
# Description: 4. Inhibition of cholesterol biosynthesis
# The biological effectiveness of the compound of the formula I was determined using cell cultures of cell line HEP-G2. For this purpose, monolayers of HEP-G2 cells were preincubated for one hour in a lipo-protein-free culture medium containing appropriate concentrations of the test substances; after the ^14 C-labeled precursor ^14 C-(sodium acetate) has been added, incubation is continued for three hours. After this, a portion of the cells are subjected to alkaline hydrolysis, an internal standard of ^3 H-cholesterol having been added previously. The lipids of the hydrolysed cells are extracted using chloroform/methanol. Support-cholesterol is added, and this lipid mixture is then separated by means of preparative thin-layer chromatography; the cholesterol band is made visible and then isolated, and the amount ^14 C-cholesterol which has been formed from the ^14 C-precursor is determined scintigraphically. […] In aliquots of the cell culture, the intactness of the cell culture and lack of damage to cells by the influence of preparations is assessed morphologically (in an optical microscope) and biochemically by determining the amount of lactate dehydrogenase in the incubation medium. […]
compound,measurement,value
CC[C@H](C)C(=O)O[C@H]1C[C@@H](C)C=C2C=C[C@H](C)[C@H](CC[C@@H]3C[C@@H](O)CC(=O)O3)[C@H]21 [lovastatin],IC50,0.02 µM
